Assay results reported in patent publication US9096624B2 (OSI Pharmaceuticals, LLC, priority 2009, dated 2015).

Columns and labels:
FAK [1] = target: T1, FAK (Homo sapiens, UniProt Q05397); test: biochemical
FAK [2] = target: T1, FAK; test: Cell-based capture ELISA for inhibition of FAK autophosphorylation [pY397] in MiaPaCa2 cells
Protocol: Cell-Based Assays for Inhibition of FAK Autophosphorylation: MiaPaCa2 and U87MG
ELISA kit from Invitrogen (KHO0441).
Reagents Provided in Biosource FAK [pY397]
The cells were then suspended in cell assay medium.

[3] = MIA-PaCa2 cells, + 50% mouse plasma (Table 2), read-out: Mean FAK Cell Mechanistic IC50 + 50% mP MIA-PaCa2
[4] = MIA-PaCa2 cells, + 50% mouse plasma (Table 3), read-out: Mean FAK Cell Mechanistic IC50 + 50% mP MIA-PaCa2
[5] = MIA-PaCa2 cells on fibronectin, 2 h, no plasma, read-out: Mean FAK Cell Mechanistic IC50 MIA-PaCa2
[6] = MIA-PaCa2 cells, + 50% human plasma, read-out: Mean FAK Cell Mechanistic IC50 + 50% hP MIA-PaCa2

T1 sequence (Q05397 whole entry): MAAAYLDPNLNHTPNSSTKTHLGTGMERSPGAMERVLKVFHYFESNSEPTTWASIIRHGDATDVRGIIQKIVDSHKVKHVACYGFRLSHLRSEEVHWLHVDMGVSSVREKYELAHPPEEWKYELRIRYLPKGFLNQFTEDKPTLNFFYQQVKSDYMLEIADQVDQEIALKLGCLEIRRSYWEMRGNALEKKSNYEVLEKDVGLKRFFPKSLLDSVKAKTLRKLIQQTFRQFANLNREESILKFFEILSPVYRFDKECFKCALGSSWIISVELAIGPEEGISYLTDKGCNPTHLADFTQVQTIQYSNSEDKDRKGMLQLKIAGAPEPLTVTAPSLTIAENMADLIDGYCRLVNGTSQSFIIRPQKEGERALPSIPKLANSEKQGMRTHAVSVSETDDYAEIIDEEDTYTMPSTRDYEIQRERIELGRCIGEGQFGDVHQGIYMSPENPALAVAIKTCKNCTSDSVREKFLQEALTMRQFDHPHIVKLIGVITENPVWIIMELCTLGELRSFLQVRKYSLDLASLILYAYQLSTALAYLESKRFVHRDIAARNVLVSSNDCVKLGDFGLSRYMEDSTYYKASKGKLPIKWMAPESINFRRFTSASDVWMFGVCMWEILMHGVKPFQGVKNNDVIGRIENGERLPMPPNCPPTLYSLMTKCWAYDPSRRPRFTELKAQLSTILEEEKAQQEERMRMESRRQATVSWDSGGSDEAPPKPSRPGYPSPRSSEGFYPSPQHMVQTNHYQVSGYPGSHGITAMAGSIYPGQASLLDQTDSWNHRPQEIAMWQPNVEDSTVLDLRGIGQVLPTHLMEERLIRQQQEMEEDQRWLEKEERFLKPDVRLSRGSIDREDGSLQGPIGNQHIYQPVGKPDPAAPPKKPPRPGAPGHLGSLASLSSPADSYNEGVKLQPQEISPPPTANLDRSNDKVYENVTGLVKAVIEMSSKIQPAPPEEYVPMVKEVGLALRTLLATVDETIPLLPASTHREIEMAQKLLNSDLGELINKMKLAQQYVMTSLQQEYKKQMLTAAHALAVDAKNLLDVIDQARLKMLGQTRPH

SMILES | IC50 (FAK [1]) | IC50 (FAK [2]; [3]) | IC50 (FAK [2]; [4]) | IC50 (FAK [2]; [5]) | IC50 (FAK [2]; [6])
CCOP(=O)(Cc1ccc(Nc2ncc(C(F)(F)F)c(Nc3ccc(C4=CCN(C(N)=O)CC4)c4c3C(=O)N(C)C4)n2)c(OC)c1)OCC [Example 73, Diethyl (4-{[4-{[7-(1-carbamoyl-1,2,3,6-tetrahydropyridin-4-yl)-2-methyl-3-oxo-2,3-dihydro-1H-isoindol-4-yl]amino}-5-(trifluoromethyl)pyrimidin-2-yl]amino}-3-methoxybenzyl)phosphonate] | < 1000 nM | < 1000 nM | – | – | –
CC(C)OP(=O)(Cc1cccc(Nc2ncc(C(F)(F)F)c(NCc3cccnc3N(C)S(C)(=O)=O)n2)c1)OC(C)C [Example 35, Dipropan-2-yl [3-({4-[({2-[methyl(methylsulfonyl)amino]pyridin-3-yl}methyl)amino]-5-(trifluoromethyl)pyrimidin-2-yl}amino)benzyl]phosphonate] | < 1000 nM | 1000 to 10000 nM | – | – | –
CCOP(=O)(Cc1ccc(Nc2ncc(C(F)(F)F)c(Nc3ccc(N4CCN(C(C)=O)CC4)c4c3C(=O)N(C)C4)n2)cc1)OCC [Example 199, Diethyl (4-{[4-{[7-(4-acetylpiperazin-1-yl)-2-methyl-3-oxo-2,3-dihydro-1H-isoindol-4-yl]amino}-5-(trifluoromethyl)pyrimidin-2-yl]amino}benzyl)phosphonate] | < 1000 nM | – | < 1000 nM | – | –
CCOP(=O)(Cc1ccc(Nc2ncc(C(F)(F)F)c(NCc3cccc([S+](C)[O-])c3)n2)cc1)OCC (stereo not shown) [Example 47, diethyl (4-{[4-{[3-(methylsulfinyl)benzyl]amino}-5-(trifluoromethyl)pyrimidin-2-yl]amino}benzyl)phosphonate] | < 1000 nM | 1000 to 10000 nM | – | – | –
CCOP(=O)(Cc1cccc(Nc2ncc(C(F)(F)F)c(NCc3cccnc3N(C)S(C)(=O)=O)n2)c1)c1ccccc1 (stereo not shown) [Example 51, Ethyl [3-({4-[({2-[methyl(methylsulfonyl)amino]pyridin-3-yl}methyl)amino]-5-(trifluoromethyl)pyrimidin-2-yl}amino)benzyl]phenylphosphinate] | < 1000 nM | > 10000 nM | – | – | –
CCOP(=O)(Cc1ccc(Nc2ncc(C(F)(F)F)c(NCc3cccc(S(C)(=O)=O)c3)n2)cc1)OCC [Example 25, diethyl (4-{[4-{[3-(methylsulfonyl)benzyl]amino}-5-(trifluoromethyl)pyrimidin-2-yl]amino}benzyl)phosphonate] | < 1000 nM | 1000 to 10000 nM | – | – | –
CCOP(=O)(Cc1ccc(Nc2ncc(C(F)(F)F)c(Nc3cc(F)ccc3C(=O)NC)n2)c(OC)c1)OCC [Example 103, Diethyl (4-{[4-{[5-fluoro-2-(methylcarbamoyl)phenyl]amino}-5-(trifluoromethyl)pyrimidin-2-yl]amino}-3-methoxybenzyl)phosphonate] | < 1000 nM | – | < 1000 nM | – | –
CCOC(=O)[C@H]1CC[C@H](c2ccc(Nc3nc(Nc4ccc(CP(=O)(OCC)OCC)cc4OC)ncc3C(F)(F)F)c3c2CN(C)C3=O)CC1 [Example 88, Ethyl trans-4-(7-{[2-({4-[(diethoxyphosphoryl)methyl]-2-methoxyphenyl}amino)-5-(trifluoromethyl)pyrimidin-4-yl]amino}-2-methyl-1-oxo-2,3-dihydro-1H-isoindol-4-yl)cyclohexanecarboxylate] | < 1000 nM | < 1000 nM | – | – | –
CCOP(C)(=O)Cc1ccc(Nc2ncc(C(F)(F)F)c(Nc3ccc(-c4cnn(CCO)c4)c4c3C(=O)N(C)C4)n2)cc1 (stereo not shown) [Example 64, Ethyl (4-{[4-({7-[1-(2-hydroxyethyl)-1H-pyrazol-4-yl]-2-methyl-3-oxo-2,3-dihydro-1H-isoindol-4-yl}amino)-5-(trifluoromethyl)pyrimidin-2-yl]amino}benzyl)methylphosphinate] | < 1000 nM | – | – | < 1000 nM | < 1000 nM
CCOP(=O)(Cc1ccc(Nc2ncc(C(F)(F)F)c(Nc3ccc(-c4cnn(C[C@H](O)CO)c4)c4c3C(=O)N(C)C4)n2)cc1)OCC [Example 101, Diethyl [4-({4-[(7-{1-[(2S)-2,3-dihydroxypropyl]-1H-pyrazol-4-yl}-2-methyl-3-oxo-2,3-dihydro-1H-isoindol-4-yl)amino]-5-(trifluoromethyl)pyrimidin-2-yl}amino)benzyl]phosphonate] | < 1000 nM | – | < 1000 nM | – | –
CCOP(=O)(Cc1ccc(Nc2ncc(C(F)(F)F)c(Nc3cccc4c3C(=O)N(C)C4=O)n2)c(OC)c1)OCC [Example 105, Diethyl [3-methoxy-4-({4-[(2-methyl-1,3-dioxo-2,3-dihydro-1H-isoindol-4-yl)amino]-5-(trifluoromethyl)pyrimidin-2-yl}amino)benzyl]phosphonate] | < 1000 nM | – | 1000 to 10000 nM | – | –
CCOP(=O)(Cc1ccc(Nc2ncc(C(F)(F)F)c(Nc3ccc(N4CCCC(O)C4)c4c3C(=O)N(C)C4)n2)c(OC)c1)OCC (stereo not shown) [Example 86, Diethyl (4-{[4-{[7-(3-hydroxypiperidin-1-yl)-2-methyl-3-oxo-2,3-dihydro-1H-isoindol-4-yl]amino}-5-(trifluoromethyl)pyrimidin-2-yl]amino}-3-methoxybenzyl)phosphonate] | < 1000 nM | < 1000 nM | – | – | –
CCOP(=O)(Cc1ccc(Nc2ncc(C(F)(F)F)c(Nc3ccc(C(=O)N4CCCC4)c4c3C(=O)N(C)C4)n2)cc1)OCC [Example 116, Diethyl (4-{[4-{[2-methyl-3-oxo-7-(pyrrolidin-1-ylcarbonyl)-2,3-dihydro-1H-isoindol-4-yl]amino}-5-(trifluoromethyl)pyrimidin-2-yl]amino}benzyl)phosphonate] | < 1000 nM | – | 1000 to 10000 nM | – | –
CCOP(=O)(Cc1ccc(Nc2ncc(C(F)(F)F)c(Nc3ccc([C@H]4CC[C@@H](O)CC4)c4c3C(=O)N(C)C4)n2)c(OC)c1)OCC [Example 94, Diethyl (4-{[4-{[7-(cis-4-hydroxycyclohexyl)-2-methyl-3-oxo-2,3-dihydro-1H-isoindol-4-yl]amino}-5-(trifluoromethyl)pyrimidin-2-yl]amino}-3-methoxybenzyl)phosphonate] | < 1000 nM | < 1000 nM | – | – | –
CCP(=O)(CC)Cc1cccc(Nc2ncc(C(F)(F)F)c(NCc3cccnc3N(C)S(C)(=O)=O)n2)c1 [Example 11, N-[3-({[2-({3-[(Diethylphosphoryl)methyl]phenyl}amino)-5-(trifluoromethyl)pyrimidin-4-yl]amino}methyl)pyridin-2-yl]-N-methylmethanesulfonamide] | < 1000 nM | < 1000 nM | – | < 1000 nM | < 1000 nM
CCOP(=O)(Cc1ccc(Nc2ncc(C(F)(F)F)c(Nc3ccc([C@@H]4C[C@@H](O)[C@@H](O)C4)c4c3C(=O)N(C)C4)n2)c(OC)c1)OCC [Example 243, Diethyl (4-{[4-({7-[-3,4-dihydroxycyclopentyl]-2-methyl-3-oxo-2,3-dihydro-1H-isoindol-4-yl}amino)-5-(trifluoromethyl)pyrimidin-2-yl]amino}-3-methoxybenzyl) phosphonate] | < 1000 nM | – | < 1000 nM | – | –
CC(C)OP(=O)(OC(C)C)c1ccc(Nc2ncc(C(F)(F)F)c(NCc3cccnc3N(C)S(C)(=O)=O)n2)cc1 [Example 38, dipropan-2-yl [4-({4-[({2-[methyl(methylsulfonyl)amino]pyridin-3-yl}methyl)amino]-5-(trifluoromethyl)pyrimidin-2-yl}amino)phenyl]phosphonate] | < 1000 nM | 1000 to 10000 nM | – | – | –
CCOP(=O)(Cc1ccc(Nc2ncc(C(F)(F)F)c(Nc3ccc([C@H]4CC[C@H](OCC)CC4)c4c3C(=O)N(C)C4)n2)cc1)OCC [Example 169, Diethyl (4-{[4-{[7-(trans-4-ethoxycyclohexyl)-2-methyl-3-oxo-2,3-dihydro-1H-isoindol-4-yl]amino}-5-(trifluoromethyl)pyrimidin-2-yl]amino}benzyl)phosphonate] | < 1000 nM | – | < 1000 nM | – | –
CCOP(=O)(OCC)C(F)c1ccc(Nc2ncc(C(F)(F)F)c(Nc3ccccc3C(=O)NC)n2)cc1 (stereo not shown) [Example 172, Diethyl [fluoro(4-{[4-{[2-(methylcarbamoyl)phenyl]amino}-5-(trifluoromethyl)pyrimidin-2-yl]amino}phenyl)methyl]phosphonate] | < 1000 nM | – | < 1000 nM | – | –
CC(C)COP(=O)(Cc1ccc(Nc2ncc(C(F)(F)F)c(NCc3cccnc3N(C)S(C)(=O)=O)n2)cc1)OCC(C)C [Example 30, bis(2-methylpropyl) [4-({4-[({2-[methyl(methylsulfonyl)amino]pyridin-3-yl}methyl)amino]-5-(trifluoromethyl)pyrimidin-2-yl}amino)benzyl]phosphonate] | < 1000 nM | 1000 to 10000 nM | – | 1000 to 10000 nM | 1000 to 10000 nM
CN(c1ncccc1CNc1nc(Nc2ccc(P(C)(C)=O)cc2)ncc1C(F)(F)F)S(C)(=O)=O [Example 14, N-[3-({[2-{[4-(Dimethylphosphoryl)phenyl]amino}-5-(trifluoromethyl)pyrimidin-4-yl]amino}methyl)pyridin-2-yl]-N-methylmethanesulfonamide] | < 1000 nM | < 1000 nM | – | < 1000 nM | < 1000 nM
CCOP(=O)(Cc1ccc(Nc2ncc(C(F)(F)F)c(Nc3ccc(-c4cnn(CCO)c4)c4c3C(=O)N(C)C4)n2)c(OC)c1)OCC [Example 69, Diethyl (4-{[4-({7-[1-(2-hydroxyethyl)-1H-pyrazol-4-yl]-2-methyl-3-oxo-2,3-dihydro-1H-isoindol-4-yl}amino)-5-(trifluoromethyl)pyrimidin-2-yl]amino}-3-methoxybenzyl)phosphonate] | < 1000 nM | – | – | < 1000 nM | < 1000 nM
